Test results from PMC7962978, “PSMA-D4 Radioligand for Targeted Therapy of Prostate Cancer: Synthesis, Characteristics and Preliminary Assessment of Biological Properties” (International Journal of Molecular Sciences, 2021).

How the values were obtained:
PSMA antigen = target: T1, PSMA antigen (Homo sapiens, UniProt Q04609); experiment: Saturation radioligand binding assay on LNCaP (PSMA positive) and PC3 (PSMA negative) cell membranes; details: for Kd: LNCaP cell membranes, 2 h, 37 °C; for Specific Binding: total binding on LNCaP minus non-specific binding on PC3 membranes
T1 construct: PSMA antigen expressed on LNCaP cell membranes; endogenous in cells; host or cells: LNCaP cell membranes (PC3 membranes as PSMA-negative control)
Procedure: The equilibrium constant (KD) was determined by a saturation binding experiment performed in PSMA positive LNCaP and PSMA negative PC3 cell membranes isolated according to the procedure developed by Fichna et al.. The 50 mcL of LNCaP and PC3 cell membranes were seeded on special MultiScreen™ 96 well filter plates (Merck, Warsaw, Poland) and incubated for 2 h with increasing concentration of [^177Lu]Lu-PSMA-D4, [^90Y]Y-PSMA-D4, and […] (0.016–194 nM) at 37 °C. After incubation, the unbound radiocomplexes were filtered under vacuum, and the membranes were washed twice using PBS. The filters containing membranes with the attached radiotracer were extruded into tubes using MultiScreen Multile Punch (Merck). The number of associated inhibitors was determined by measuring the radioactivity of squeezed filters using Wallac Wizard 1470 γ counter. The KD and Bmax were calculated by nonlinear regression using the GraphPad Prism statistic program.

[1] = Blood pharmacokinetics, one-phase model, healthy rats; assay type: in vivo; details: healthy rats (data not presented)
[2] = Lipophilicity determination (logD), shake-flask method; assay type: physicochemical; details: n-octanol / PBS pH 7.4, shake-flask
Procedure: The partition coefficient logD of the radioligands was determined by the shake-flask method. The solution of 10 to 50 MBq of radiolabeled PSMA ligands (D-4, 617, 11, I&T) in 1.0 mL of phosphate-buffered saline (PBS, pH 7.4) was added to 1.0 mL of presaturated n-octanol solution (n = 3). Vials were shaken vigorously for 10 min. To achieve quantitative phase separation, the vials were centrifuged at 1600 rpm for 5 min. The radioactivity concentration in a defined volume of both the aqueous and the organic phase in six replicates each was measured in a γ-counter (Wizard 1470, Wallac, Turku, Finland). The partition coefficient was calculated as the logarithm of the ratio between counts per minute (cpm) measured in the n-octanol phase to the PBS phase counts.

LNCaP cells = experiment: Cell uptake (total binding) and internalization in LNCaP cells; assay type: cell-based, human; details: 37 °C, 2 h
Procedure: To determine cell uptake and internalization of [^177Lu]Lu-PSMA-D4 and [^90Y]Y-PSMA-D4, LNCaP cells (5 × 10^5 cells well^−1) were incubated in un-supplemented RPMI 1640 medium with one concentration of tested radioligands on 12-well plates in 37 °C per 2 h. After the appropriate time, the medium was removed, and cells were washed twice using phosphate buffer saline (PBS, IITD PAN, Wroclaw, Poland). The cells were treated twice with 1 mL of 50 mM glycine in 0.1 M NaCl at a pH of 2.8 and incubated for 5 min at room temperature to collect extracellularly bound compound. The internalization was determined by measuring the radioactivity of 1mL of 1 M NaOH used for cell lysis. Total binding was calculated as a sum of the membrane and internalized fractions measured using Wallac Wizard 1470 γ counter. As a control, [^177Lu]Lu-PSMA-617 and [^68Ga]Ga-PSMA-11 were used.

LNCaP tumor-bearing mice [3] = experiment: Ex vivo biodistribution in mice bearing LNCaP tumor
Procedure: An experimental tumor murine model was induced using LNCaP cell, which grew to 80–90% confluence before trypsinization and formulation in Matrixgel™ Basement Membrane Matrix (Bedford, MA, USA) for implantation into mice. The mice were subcutaneously injected in the shoulder with 200 mcL bolus containing a suspension of 10^6 freshly harvested cell line LNCaP in Matrixgel™. This procedure was performed under anaesthesia with 2% isoflurane. The animals were kept under pathogen-free condition, and experiments were performed 2–3 weeks later when a tumor reached a volume of approximately 150 ± 60 mm^3. Then, the animals were randomized into two groups (25 mice per group, five mice per time point): Group 1, treated with a single intravenous injection of [^90Y]Y-PSMA-D4 (0.1 mL, 0.1 mcg, 15.5 MBq, SA 16.7 GBq mg^−1 = 17.2 GBq mcmol^−1) and Group 2, treated with a single intravenous injection of [^47Sc]Sc-PSMA-D4 (0.1 mL, 0.19 mcg, 10 MBq, SA 4.8 GBq mg^−1 = 4.57 GBq mcmol^−1).
At 1, 2, 4, 6, 24, and 48 h after injection, the animals were euthanized by cervical dislocation and dissected. Selected organs and tissues were assayed for their radioactivity and weighted. The physiological distribution was calculated and expressed in terms of the percentage of administrated radioactivity found in each of the selected organs or tissues per gram (%ID g^−1).
Results are provided as mean ± SD. The results of physiological distribution are presented as a percentage of the dose administered per gram of tissue (%ID g^−1) as average value with standard deviation (%ID g^−1; mean ± standard deviation (SD)) with n representing the number of animals per group. Data were statistically analyzed using GraphPad Prism version 8.0.0 for Window.

LNCaP tumor-bearing mice [4] = experiment: Cerenkov luminescence imaging (CLI) of LNCaP tumor-bearing mice; assay type: in vivo; details: 2-48 h p.i.
Procedure: The PhotonIMAGER Optima system (Biospace Lab, Nesles-la-Vallée, France) was used for the non-invasive detection, localization, and quantification of yttrium-90 signal from live animals based on Cerenkov luminescence imaging. It was feasible due to high-energy β^− particle emission produces continuous spectrum light photons or Cerenkov radiation. Optical imaging of [^90Y]Y-PSMA-D4 in LNCaP cell grafted mice was performed contemporaneously with ex vivo studies. The animals were placed individually in an induction chamber, where anaesthesia was induced with 5% isoflurane (Iso-Vet, Piramal Healthcare UK Limited, West Drayton, UK) in 100% oxygen with a delivery rate of 2 L min^−1 until loss of righting reflex. After induction, the animals were moved to the optical chamber. Anaesthesia was then maintained with 1.5–2% isoflurane in 100% oxygen with a flow of 1.5 L min^−1 administered through a facemask connected to a coaxial circuit. Body temperature was maintained at 37 °C by a heating table inside the chamber. At recovery, all animals received 100% oxygen until recovery of righting reflex. No mice were restrained during anaesthesia.

T1 sequence (Q04609 whole entry): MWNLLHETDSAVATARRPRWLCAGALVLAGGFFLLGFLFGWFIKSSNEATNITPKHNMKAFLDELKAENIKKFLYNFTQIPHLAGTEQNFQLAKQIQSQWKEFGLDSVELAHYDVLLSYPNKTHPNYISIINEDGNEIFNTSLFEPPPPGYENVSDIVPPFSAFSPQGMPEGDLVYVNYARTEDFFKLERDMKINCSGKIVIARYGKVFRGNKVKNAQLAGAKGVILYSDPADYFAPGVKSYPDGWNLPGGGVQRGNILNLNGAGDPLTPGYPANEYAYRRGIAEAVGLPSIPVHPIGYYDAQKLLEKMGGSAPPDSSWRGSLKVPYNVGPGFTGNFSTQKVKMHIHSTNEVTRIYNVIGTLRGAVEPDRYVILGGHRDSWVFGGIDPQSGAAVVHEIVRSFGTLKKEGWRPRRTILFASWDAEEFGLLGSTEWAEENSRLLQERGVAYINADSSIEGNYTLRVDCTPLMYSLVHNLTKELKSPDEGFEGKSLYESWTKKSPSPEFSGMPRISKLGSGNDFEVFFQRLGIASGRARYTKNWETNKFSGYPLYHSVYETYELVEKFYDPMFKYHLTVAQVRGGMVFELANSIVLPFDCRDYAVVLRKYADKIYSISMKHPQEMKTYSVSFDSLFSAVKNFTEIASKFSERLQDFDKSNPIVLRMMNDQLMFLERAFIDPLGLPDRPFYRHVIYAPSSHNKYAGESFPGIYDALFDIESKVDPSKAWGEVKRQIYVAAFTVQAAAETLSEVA

O=C([O-])CN1CCN(CC(=O)[O-])CCN(CC(=O)NCC2CCC(C(=O)NC(Cc3c[nH]c4ccccc34)C(=O)NCCCCC(NC(=O)NC(CCC(=O)O)C(=O)O)C(=O)O)CC2)CCN(CC(=O)[O-])CC1.[177Lu+3] (centres unmarked) [[^177Lu]Lu-PSMA-D4]
Kd (PSMA antigen): 2.4 ± 0.3 nM
Specific Binding (PSMA antigen): 99.1 ± 0.3%
blood half-life [1]: 33 min
logD [2]: −5.16 ± 0.07
Internalization (LNCaP cells): 37.0 ± 3.3%
Total Binding (LNCaP cells): 10.2%

O=C([O-])CN1CCN(CC(=O)[O-])CCN(CC(=O)NCC2CCC(C(=O)NC(Cc3c[nH]c4ccccc34)C(=O)NCCCCC(NC(=O)NC(CCC(=O)O)C(=O)O)C(=O)O)CC2)CCN(CC(=O)[O-])CC1.[90Y+3] (centres unmarked) [[^90Y]Y-PSMA-D4]
Kd (PSMA antigen): 4.5 ± 2.1 nM
Specific Binding (PSMA antigen): 99.9 ± 0.1%
T/B (ratio tumor to blood) (LNCaP tumor-bearing mice [3]; 2 h after i.v. injection): 323.7
T/K (ratio tumor to kidneys) (LNCaP tumor-bearing mice [3]; 2 h after i.v. injection): 7.6
T/M (ratio tumor to muscle) (LNCaP tumor-bearing mice [3]; 2 h after i.v. injection): 97.0
blood (LNCaP tumor-bearing mice [3]; 2 h after i.v. injection): 0.06 ± 0.01 %ID g^−1
kidneys (LNCaP tumor-bearing mice [3]; 2 h after i.v. injection): 2.70 ± 0.20 %ID g^−1
large intestine (LNCaP tumor-bearing mice [3]; 2 h after i.v. injection): 0.12 ± 0.05 %ID g^−1
liver (LNCaP tumor-bearing mice [3]; 2 h after i.v. injection): 0.08 ± 0.00 %ID g^−1
muscle (LNCaP tumor-bearing mice [3]; 2 h after i.v. injection): 0.21 ± 0.13 %ID g^−1
small intestine (LNCaP tumor-bearing mice [3]; 2 h after i.v. injection): 0.32 ± 0.13 %ID g^−1
spleen (LNCaP tumor-bearing mice [3]; 2 h after i.v. injection): 0.19 ± 0.06 %ID g^−1
stomach (LNCaP tumor-bearing mice [3]; 2 h after i.v. injection): 0.10 ± 0.04 %ID g^−1
tumor (LNCaP tumor-bearing mice [3]; 2 h after i.v. injection): 20.24 ± 5.52 %ID g^−1
urine (LNCaP tumor-bearing mice [3]; 2 h after i.v. injection): 96.08 ± 0.53 %ID
T/B (ratio tumor to blood) (LNCaP tumor-bearing mice [3]; 4 h after i.v. injection): 312.9
T/K (ratio tumor to kidneys) (LNCaP tumor-bearing mice [3]; 4 h after i.v. injection): 9.7
T/M (ratio tumor to muscle) (LNCaP tumor-bearing mice [3]; 4 h after i.v. injection): 324.4
blood (LNCaP tumor-bearing mice [3]; 4 h after i.v. injection): 0.05 ± 0.03 %ID g^−1
kidneys (LNCaP tumor-bearing mice [3]; 4 h after i.v. injection): 1.70 ± 0.13 %ID g^−1
large intestine (LNCaP tumor-bearing mice [3]; 4 h after i.v. injection): 0.32 ± 0.16 %ID g^−1
liver (LNCaP tumor-bearing mice [3]; 4 h after i.v. injection): 0.08 ± 0.01 %ID g^−1
muscle (LNCaP tumor-bearing mice [3]; 4 h after i.v. injection): 0.05 ± 0.02 %ID g^−1
small intestine (LNCaP tumor-bearing mice [3]; 4 h after i.v. injection): 0.30 ± 0.14 %ID g^−1
spleen (LNCaP tumor-bearing mice [3]; 4 h after i.v. injection): 0.17 ± 0.06 %ID g^−1
stomach (LNCaP tumor-bearing mice [3]; 4 h after i.v. injection): 0.11 ± 0.05 %ID g^−1
tumor (LNCaP tumor-bearing mice [3]; 4 h after i.v. injection): 16.40 ± 6.88 %ID g^−1
urine (LNCaP tumor-bearing mice [3]; 4 h after i.v. injection): 95.47 ± 3.07 %ID
T/B (ratio tumor to blood) (LNCaP tumor-bearing mice [3]; 6 h after i.v. injection): 131.2
T/K (ratio tumor to kidneys) (LNCaP tumor-bearing mice [3]; 6 h after i.v. injection): 8.4
T/M (ratio tumor to muscle) (LNCaP tumor-bearing mice [3]; 6 h after i.v. injection): 983.7
blood (LNCaP tumor-bearing mice [3]; 6 h after i.v. injection): 0.06 ± 0.01 %ID g^−1
kidneys (LNCaP tumor-bearing mice [3]; 6 h after i.v. injection): 0.98 ± 0.38 %ID g^−1
large intestine (LNCaP tumor-bearing mice [3]; 6 h after i.v. injection): 0.20 ± 0.02 %ID g^−1
liver (LNCaP tumor-bearing mice [3]; 6 h after i.v. injection): 0.31 ± 0.07 %ID g^−1
muscle (LNCaP tumor-bearing mice [3]; 6 h after i.v. injection): 0.01 ± 0.01 %ID g^−1
small intestine (LNCaP tumor-bearing mice [3]; 6 h after i.v. injection): 0.14 ± 0.11 %ID g^−1
spleen (LNCaP tumor-bearing mice [3]; 6 h after i.v. injection): 1.05 ± 0.29 %ID g^−1
stomach (LNCaP tumor-bearing mice [3]; 6 h after i.v. injection): 0.04 ± 0.03 %ID g^−1
tumor (LNCaP tumor-bearing mice [3]; 6 h after i.v. injection): 8.28 ± 1.97 %ID g^−1
urine (LNCaP tumor-bearing mice [3]; 6 h after i.v. injection): 96.57 ± 2.44 %ID
T/B (ratio tumor to blood) (LNCaP tumor-bearing mice [3]; 24 h after i.v. injection): 257.6
T/K (ratio tumor to kidneys) (LNCaP tumor-bearing mice [3]; 24 h after i.v. injection): 29.0
T/M (ratio tumor to muscle) (LNCaP tumor-bearing mice [3]; 24 h after i.v. injection): 387.4
blood (LNCaP tumor-bearing mice [3]; 24 h after i.v. injection): 0.03 ± 0.03 %ID g^−1
kidneys (LNCaP tumor-bearing mice [3]; 24 h after i.v. injection): 0.30 ± 0.12 %ID g^−1
large intestine (LNCaP tumor-bearing mice [3]; 24 h after i.v. injection): 0.41 ± 0.15 %ID g^−1
liver (LNCaP tumor-bearing mice [3]; 24 h after i.v. injection): 0.04 ± 0.01 %ID g^−1
muscle (LNCaP tumor-bearing mice [3]; 24 h after i.v. injection): 0.02 ± 0.02 %ID g^−1
small intestine (LNCaP tumor-bearing mice [3]; 24 h after i.v. injection): 0.20 ± 0.20 %ID g^−1
spleen (LNCaP tumor-bearing mice [3]; 24 h after i.v. injection): 0.12 ± 0.06 %ID g^−1
stomach (LNCaP tumor-bearing mice [3]; 24 h after i.v. injection): 0.06 ± 0.05 %ID g^−1
tumor (LNCaP tumor-bearing mice [3]; 24 h after i.v. injection): 8.33 ± 3.09 %ID g^−1
urine (LNCaP tumor-bearing mice [3]; 24 h after i.v. injection): 94.79 ± 7.51 %ID
T/B (ratio tumor to blood) (LNCaP tumor-bearing mice [3]; 48 h after i.v. injection): 193.0
T/K (ratio tumor to kidneys) (LNCaP tumor-bearing mice [3]; 48 h after i.v. injection): 68.4
T/M (ratio tumor to muscle) (LNCaP tumor-bearing mice [3]; 48 h after i.v. injection): 351.4
blood (LNCaP tumor-bearing mice [3]; 48 h after i.v. injection): 0.04 ± 0.02 %ID g^−1
kidneys (LNCaP tumor-bearing mice [3]; 48 h after i.v. injection): 0.12 ± 0.03 %ID g^−1
large intestine (LNCaP tumor-bearing mice [3]; 48 h after i.v. injection): 0.84 ± 0.56 %ID g^−1
liver (LNCaP tumor-bearing mice [3]; 48 h after i.v. injection): 0.17 ± 0.07 %ID g^−1
muscle (LNCaP tumor-bearing mice [3]; 48 h after i.v. injection): 0.02 ± 0.01 %ID g^−1
small intestine (LNCaP tumor-bearing mice [3]; 48 h after i.v. injection): 0.14 ± 0.07 %ID g^−1
spleen (LNCaP tumor-bearing mice [3]; 48 h after i.v. injection): 0.97 ± 0.62 %ID g^−1
stomach (LNCaP tumor-bearing mice [3]; 48 h after i.v. injection): 0.03 ± 0.03 %ID g^−1
tumor (LNCaP tumor-bearing mice [3]; 48 h after i.v. injection): 8.03 ± 7.31 %ID g^−1
urine (LNCaP tumor-bearing mice [3]; 48 h after i.v. injection): 97.75 ± 0.34 %ID
logD [2]: −5.18 ± 0.04
in vivo CLI tumor visualization (LNCaP tumor-bearing mice [4]): excellent tumor visualization
Internalization (LNCaP cells): 35.4%
Total Binding (LNCaP cells): 16.8%
